Source: patent US10647680B2, “Urea compound, preparation method therefor and medical use thereof” (Ancureall Pharmaceutical (Shanghai) Co., Ltd., priority 2016, dated 2020)

Columns and labels:
AU565 (HER2/ErbB2 amp) = assay: In vitro growth inhibition (GI50), AU565; type: cell-based; settings: Homo sapiens
Description: (§1) Tumor cell line is an effective cell model for studying the inhibition of tumor cell growth or proliferation in vitro. In the present invention, a representative tumor cell line was selected to determine the cell growth inhibition activity of the present compound. All cell lines used were from ATCC, DSMZ, and the Cell Bank of the Chinese Academy of Sciences. Cell culture conditions and methods were in accordance with the requirements of each cell line. Cells were subcultured in vitro for no more than 3 passages each time, and as required, single-clone purification and identification of cell lines could be carried out.
(§2) The cell culture media used were RPMI1640 (Gibco), MEM (Gibco), McCOY'S5A (Gibco), and IMDM (Gibco). The complete medium was prepared by supplement with 5˜20% fetal calf serum (Gibco), 1% double-antibiotics (10000 units/mL penicillin and 10000 units/mL), 2 mM glutamine or 1 mM sodium pyruvate, respectively.
(§3) Human gastric cancer cell line NCI-N87 (HER2/ErbB2 amp, ATCC), human breast cancer cell line HCC1954 (HER2/ErbB2 amp, ATCC) and ZR-75-30 (HER2/ErbB2 amp, ATCC), human adenocarcinoma cell line AU565 (HER2/ErbB2 amp, ATCC), human lung squamous cell carcinoma cell line NCI-H2170 (HER2/ErbB2 amp, ATCC), human bronchioalveolar adenocarcinoma cell line NCI-H1781 (HER2/ErbB2 Ins G776V,C mutant type, ATCC) were cultured with a 1×RPMI1640 complete medium (10% FBS), respectively. Human lung adenocarcinoma cell line Calu-3 (HER2/ErbB2 amp, ATCC) was cultured with 1×MEM, 10% FBS, 1% double antibody, 1% NEAA (Gibco), 2 mM glutamine and 1 mM sodium pyruvate. The human breast cancer cell line SK-BR-3 (HER2/ErbB2 amp, ATCC) was cultured with a McCOY'S5A complete medium (10% FBS).
(§4) Adherent cells were digested with 0.25% pancreatin-EDTA (Gibco). The suspension cells were collected by centrifugation. The supernatant was discarded and the cell pellet was resuspended and counted. Different cell concentrations (5˜10×10^4 cells/mL) were prepared according to the growth cycle of each cell line and then seeded on a 96-well plate (Corning), 100 μL/well. The cells were incubated overnight at 37° C., 5% CO2. The compounds were added to the cells on the second day with 2 wells in parallel. The final concentration of organic solvent shall not exceed 1%. The cells were continually incubated for 3 to 5 days, and then subjected to MTT assay.
(§5) The compound of the present invention and the control compound were dissolved in DMSO (Sigma) respectively, with the purity of more than 98%. The compound was stored in a concentration of 10 mM at −20° C. and diluted to 2- or 10-fold series prior to use.
(§6) Dojindo CCK8 reagent kit was used as MTT assay. THERMO […] FC meter was used as microplate reader.
(§7) For adherent cells, culture medium was removed and immediately replaced with the fresh prepared medium which contains 10% CCK8 reagent (100 μL/well). For the suspension cells, CCK8 was directly added to 10% of the final concentration. The cells were continually incubated for 1˜4 h. When a dark yellow color could be observed in the solvent control wells, the absorbance value at OD450 nm was measured and the cell growth rate was calculated according to the following formula: Cell Growth Rate (%)=100*(T−T0)/(C−T0) T=optical density of drug treatment cell well—optical density of blank control well; T0=optical density of cell well before drug treatment—optical density of blank control well; C=optical density of cell well of solvent control group—optical density of blank control well. The concentration value of 50% inhibition of cell growth (GI50) was calculated according to the drug concentration and cell growth rate curve. The experiment was independently repeated 1˜3 times, and subject to biological statistical analysis. 4. Experimental Results
Tumor cell growth inhibition test was performed by selecting representative compounds (compounds 4, 11, 12, 16, 27, 68, 71, 77, 79, 89 and 116 of the present invention). […]

[1] = test system: A431 (EGFR WT, amplification and high expression); assay: In vitro growth inhibition (GI50), A431; type: cell-based; settings: Homo sapiens, A-431
Description: as §1, §2
(§8) Human epidermal cancer cell line A431 (EGFR WT, amplification and high expression, from Shanghai Cell Bank of Chinese Academy of Sciences and ATCC), human lung cancer cell line NCI-H292 (EGFR WT, purchased from Shanghai Cell Bank of Chinese Academy of Sciences), NSCLC cell lines PC-9 and HCC827 (EGFR exon19 E746-A750 deletion, two cell lines are sensitive to the first-generation EGFR PTK inhibitor), NSCLC cell line NCI-H1975 (EGFR L858R/T790M and the first-generation EGFR inhibitor resistance, ATCC) were cultured with 1×RPMI1640 complete medium (supplement with 10% FBS), respectively.
as §4, §5, §6, §7
Tumor cell growth inhibition test was performed by selecting representative compounds (compounds 4, 11, 12, 16, 27, 68, 71, 77, 79, 89 and 116 of the present invention). The initial concentration of the compound was 5,000 nM, then it was serially diluted by 2-fold or 10-fold to 0.01 nM. The GI50 value of each test compound was calculated according to the GI50 assay and calculation method. […]

[2] = test system: tumor cells with abnormal expressions of EGFR, HER2/ERBB2, FGFR1, RAS, BRAF, cMET, and ALK genes; assay: In vitro growth inhibition of different tumor cells (summary over the panel); type: cell-based, human; settings: GI50 value in the micro-molar range
Description: as §8, §3
The human gastric cancer cell line MKN-45 (c-MET amp, ATCC) and the non-small cell lung cancer cell line NCI-H1993 (c-MET amp, ATCC) were cultured in complete medium comprising 1×RPMI1640 and 10% FBS, respectively.
Human non-small cell lung cancer cell line NCI-H2228 (expressing EML4-ALK fusion gene, ATCC) and human anaplastic large cell lymphoma cell line Karpas-299 (expressing NPM-ALK fusion gene, ATCC) were cultured in complete medium comprising 1×RPMI1640 (10% FBS), respectively. Neuroblastoma cell line SH-SY5Y (expressing ALK F1174L mutant protein, Shanghai Cell Bank, Chinese Academy of Sciences) was cultured in MEM complete medium (1×MEM, 10% FBS, 1% NEAA, 1 mM sodium pyruvate).
Human non-small cell lung cancer cell NCI-H1581 (FGFR1 amp, ATCC) is an FGFR1 gene amplified/overexpressed tumor cell line. It was cultured in complete medium comprising 1×RPMI1640 with 10% FBS.
Human large cell lung cancer cell NCI-H460 (KRAS […] mutant type, ATCC), human non-small cell lung cancer cell line H1299 (NRAS Q61K mutant type, ATCC), human melanoma cell line A375 (BRAF V600E mutant type, Shanghai Cell Bank of Chinese Academy of Sciences), human colon cancer cell line HCT116 (KRAS G13D mutant type, Shanghai Cell Bank, Chinese Academy of Sciences) were cultured in a complete medium of 1×RPMI1640 (10% FBS), respectively. Human non-small cell lung cancer cells A549 (KRAS G12S mutant type, Shanghai Cell Bank, Chinese Academy of Sciences) were cultured in a complete medium of 1× Ham's supplemented with 10% FBS, 1% double antibody, and 2 mM glutamine.
as §4, §5
Dojindo CCK8 reagent kit was used as MTT assay. THERMO […] FC meter was used as microplate reader. […]

| SMILES | GI50 (AU565 (HER2/ErbB2 amp)) | GI50 [1] | inhibition effect on growth of tumor cells with abnormal expressions of EGFR, HER2/ERBB2, FGFR1, RAS, BRAF, cMET, and ALK genes [2] |
| --- | --- | --- | --- |
| CC(C)(C)c1cc(NC(=O)Nc2ccc(-n3cnc4cc(OCCO)ccc43)cc2)no1 [Compound 11, 1-(5-tert-butyl-isoxazol-3-yl)-3-{4-[5-(2-hydroxy-ethoxyl)-benzimidazol-1-yl]-phenyl]-urea] | > 2500 nM | 1560 nM |  |
| COc1ccc2c(c1)ncn2-c1ccc(NC(=O)Nc2cc(C(C)(C)C)n[nH]2)cc1 [Compound 71, 1-(5-tert-butyl-2H-pyrazol-3-yl)-3-[4-(5-methoxyl-benzimidazol-1-yl)-phenyl]-urea] | > 2500 nM | > 2500 nM | no significant inhibition effect |
| CC(C)(C)c1cc(NC(=O)Nc2ccc(-n3cnc4cc(O)ccc43)cc2)no1 [Compound 4, 1-(5-tert-butyl-isoxazol-3-yl)-3-[4-(5-hydroxy-benzimidazol-1-yl)-phenyl]-urea] | > 2500 nM | 1890 nM |  |
| COCCOc1ccc2c(c1)ncn2-c1ccc(NC(=O)Nc2cc(C(C)(C)C)n[nH]2)cc1 [Compound 77, 1-(5-tert-butyl-2H-pyrazol-3-yl)-3-{4-[5-(2-methoxyl-ethoxyl)-benzimidazol-1-yl]-phenyl}-urea] | > 2500 nM | > 2500 nM | no significant inhibition effect |
| CC(C)(C)c1cc(NC(=O)Nc2ccc(-n3cnc4cc(OCCO)ccc43)cc2)[nH]n1 [Compound 79, 1-(5-tert-butyl-2H-pyrazol-3-yl)-3-{4-[5-(2-hydroxy-ethoxyl)-benzimidazol-1-yl]-phenyl]urea] | > 2500 nM | 2000 nM |  |
| CC(C)(C)c1cc(N)n(C(=O)Nc2ccc(-n3cnc4ccccc43)cc2)n1 [Compound 116, 5-amino-3-tert-butyl-pyrazol-1-carboxylic acid (4-benzimidazol-1-yl-phenyl)-amide] | > 2500 nM | > 2500 nM | no significant inhibition effect |
| CC(C)(C)c1cc(NC(=O)Nc2ccc(-n3cnc4ccc(OCCN5CCOCC5)cc43)cc2)no1 [Compound 27, 1-(5-tert-butyl-isoxazol-3-yl)-3-{4-[6-(2morpholin-4-yl-ethoxyl)-benzimidazol-1-yl]-phenyl}-urea] | > 2500 nM | > 2500 nM | no significant inhibition effect |
| CC(C)(C)c1cc(NC(=O)Nc2ccc(-n3cnc4ccccc43)cc2)[nH]n1 [Compound 68, 1-(4-benzimidazol-1-yl-phenyl)-3-(5-tert-butyl-2H-pyrazol-3-yl)-urea] | > 2500 nM | > 2500 nM | no significant inhibition effect |
| CC(C)(C)c1cc(NC(=O)Nc2ccc(-n3cnc4cc(OCCN5CCOCC5)ccc43)cc2)no1 [Compound 16, 1-(5-tert-butyl-isoxazol-3-yl)-3-{4-[5-(2-morpholin-4-yl-ethoxyl)-benzimidazol-1-yl]-phenyl}-urea] | > 2500 nM | > 2500 nM | no significant inhibition effect |
| CC(C)(C)c1cc(NC(=O)Nc2ccc(-n3cnc4cc(OCCN5CCOCC5)ccc43)cc2)[nH]n1 [Compound 89, 1-(5-tert-butyl-2H-pyrazol-3-yl)-3-{4-[5-(2-morpholin-4-yl-ethoxyl)-benzimidazol-1-yl]-phenyl}-urea] | > 2500 nM | > 2500 nM | no significant inhibition effect |
